The compounds below were run against T1, Monoglyceride lipase (Homo sapiens, UniProt Q99685) (assay: Inhibition of MAGL (unknown origin) using 2-arachidonoylglycerol as substrate preincubated with compound for 15 mins followed by substrate addition and measured after 30 mins by mass spectrometer analysis).
T1 sequence (Q99685 whole entry): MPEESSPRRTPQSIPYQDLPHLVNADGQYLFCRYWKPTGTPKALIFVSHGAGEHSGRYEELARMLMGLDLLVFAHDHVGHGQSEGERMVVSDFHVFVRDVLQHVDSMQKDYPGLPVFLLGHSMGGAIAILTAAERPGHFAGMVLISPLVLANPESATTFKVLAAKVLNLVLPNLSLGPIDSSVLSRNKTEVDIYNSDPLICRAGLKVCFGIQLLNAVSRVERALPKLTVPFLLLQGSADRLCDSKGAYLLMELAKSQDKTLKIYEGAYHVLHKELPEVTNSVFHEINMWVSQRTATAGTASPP

IC50 [nM] | Structure (SMILES)
5 | CC1c2nn(C)c(-c3cc(F)cc(F)c3)c2CCN1C(=O)c1cc(F)cc(OCC2CNC(=O)C2)c1Cl (stereo not drawn)
2 | C[C@H]1c2nn(C)c(-c3cc(F)cc(F)c3)c2CCN1C(=O)c1cc(F)cc(OCC2CNC(=O)O2)c1Cl (stereo partly drawn)
27 | COc1cccc(C(=O)N2CCc3c(nn(C)c3-c3cc(Cl)cc(CS(N)(=O)=O)c3)[C@@H]2C)c1Cl
